pIC50: −log10 of the molar value.
What was measured:
other CYP enzymes = assay: Determination of selectivity of a CYP2E1 inhibitor: other CYP enzymes; assay type: biochemical; details: mixed human liver microsome, probe substrates
Description: (§1) With a mixed liver microsome of a healthy individual as a research object, probe drugs CYP1A2, CYP2A6, CYP2B6, CYP2C8, CYP2C9, CYP2C19, CYP2D6, CYP2E1, and CYP3A4 were selected to determine an in vitro inhibitory effect of an inhibitor to be tested on the metabolism of the probe drugs CYP1A2, CYP2A6, CYP2B6, CYP2C8, CYP2C9, CYP2C19, CYP2D6, CYP2E1, and CYP3A4 for the mixed liver microsome of the healthy human, and the selectivity of the inhibitor to be tested for a CYP2E1 inhibitory effect was evaluated.
(§2) The CYP1A2 probe is 6.25 μM to 800 μM phenacetin or 27.5 μM to 12,520 μM caffeine; • the CYP2A6 probe is 0.156 μM to 20 μM coumarin or 12.5 μM to 2,000 μM nicotine; • the CYP2B6 probe is 7.8 μM to 500 μM bupropion or 0.25 mM to 30 mM cyclophosphamide; • the CYP2C8 probe is 2.5 μM to 80 μM paclitaxel or 0.125 μM to 128 μM amodiaquine; • the CYP2C9 probe is 31.25 μM to 2,000 μM tolbutamide or 0.1 μM to 200 μM diclofenac; • the CYP2C19 probe is 3.9 μM to 500 μM omeprazole or 1.95 μM to 1,000 μM mephenytoin; • the CYP2D6 probe is 0.625 μM to 96 μM dextromethorphan or 0.0195 μM to 80 μM propafenone; and • the CYP3A4 probe is 0.39 μM to 50 μM midazolam or 1.98 μM to 1,000 μM testosterone.
(§3) An incubation system in a total volume of 100 μL was adopted, including a substrate, an inhibitor of different concentrations, a liver microsomal protein, and PBS. […]

[1] = tested on: CT26 cell lung metastasis; assay: Lung metastasis model, tail vein injection of CRC cell CT26; assay type: in vivo, Balb/C mouse; details: SMI0 30 mg/kg, 14 days
HepG2 liver cancer cells = assay: Direct effect on HepG2 liver cancer cells; assay type: cell-based; details: up to 100 μmol/L, 24 h
Protocol: Experimental method: HepG2 liver cancer cells and H22 liver cancer cells in a logarithmic growth phase each were selected and inoculated into a 96-well plate at a concentration of 1*10^5 cells/mL, and then 100 μL of a basic medium including SMI0 at different concentrations (0 μmol/L, 0.16 μmol/L, 0.8 μmol/L, 4 μmol/L, 20 μmol/L, and 100 μmol/L) was added to each well; and 24 h later, the proliferation activity of HepG2 was determined by a CCK8 method, a migration ability of HepG2 was determined by wound-healing assay, and an apoptosis ability of HepG2 was determined by flow cytometry (FCM).

[2] = tested on: ovarian cancer ID8 cell line abdominal transplanted tumor; assay: Mouse ovarian cancer abdominal transplanted tumor model (ID8); assay type: in vivo, C57/6 mouse; details: SMI0 30 mg/kg ig daily, 30-day modeling
Protocol: Experimental method: A female C57/6 mouse ovarian cancer abdominal transplanted tumor model was constructed with an ovarian cancer murine ID8 cell line at a cell concentration of 2.5×10^6. A model group and an SMI0 intervention group were set for the experiment. The intervention group was intragastrically administered with the SMI0 compound at 30 mg/kg every day from three days before modeling to the end of the 30-day modeling (model group, n=10 mice; and SMI0 compound (30 mg/kg) group, n=11 mice). At the end of the experiment, blood was collected from the orbit, a body weight was measured, then the mice each were sacrificed, and ovary tissues were collected. Ovary tissue specimens were subjected to HE staining, and then the ovary tissue lesion and tumorigenesis of mice in each group were observed.

CYP2A6 = molecular target: T1, CYP2A6 (Homo sapiens, UniProt P11509); assay: Determination of selectivity of a CYP2E1 inhibitor: CYP2A6; assay type: biochemical; details: mixed human liver microsome, 2.5 μM coumarin probe; read-out: IC50 for 2A6 inhibition
T1 construct: With a mixed liver microsome of a healthy individual as a research object; from tissue; host or cells: mixed (pooled) human liver microsomes of healthy individuals
T1 sequence (P11509 whole entry): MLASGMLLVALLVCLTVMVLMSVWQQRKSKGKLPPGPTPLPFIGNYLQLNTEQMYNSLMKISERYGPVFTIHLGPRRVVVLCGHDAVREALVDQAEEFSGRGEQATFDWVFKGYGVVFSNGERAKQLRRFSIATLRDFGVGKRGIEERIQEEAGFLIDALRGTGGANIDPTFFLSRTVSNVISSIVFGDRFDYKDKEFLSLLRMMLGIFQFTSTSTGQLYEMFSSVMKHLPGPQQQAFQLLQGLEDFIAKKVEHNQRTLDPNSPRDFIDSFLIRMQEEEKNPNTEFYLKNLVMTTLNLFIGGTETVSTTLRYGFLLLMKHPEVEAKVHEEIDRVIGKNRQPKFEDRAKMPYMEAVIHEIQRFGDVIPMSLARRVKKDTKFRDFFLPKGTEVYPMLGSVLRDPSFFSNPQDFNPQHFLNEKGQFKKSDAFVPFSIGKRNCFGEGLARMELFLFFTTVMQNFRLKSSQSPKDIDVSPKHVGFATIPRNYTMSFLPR
Description: as §1, §2, §3

[3] = tested on: liver fibrosis in mice induced by a high-fat diet; assay: Mouse liver fibrosis model induced by a high-fat diet; assay type: in vivo, C57/6J mice; details: SMI0 30 and 150 mg/kg ig daily, 26 weeks, vs model group
Protocol: Experimental method: Male C57/6J mice were fed with a high-fructose, high-fat, and high-cholesterol feed to prepare mouse liver steatosis and hepatitis models, and a control group was fed with a low-fat and low-sugar control feed. An SMI0 intervention group was divided into a low-dose intervention group and a high-dose intervention group, which were intragastrically administered with the compound SMI0 at 30 mg/kg and 150 mg/kg every day from the beginning of modeling to the 26nd week of modeling. At the end of the 26-week experiment, blood was collected from the orbit, a body weight was measured, and then the mice each were sacrificed. The weight and appearance of a liver (color, texture, and presence or absence of nodules of the liver) were recorded. Some liver specimens were subjected to HE staining and then observed, and a steatosis score of mice in each group was recorded; and Masson staining was conducted to evaluate a liver fibrosis status of mice, and an oil red O staining area percentage was determined (model group, n=10 mice; SMI0 compound low-dose group, n=10 […]; and SMI0 compound high-dose group, n=10 […]).

In the case of `CC(=O)c1scnc1C` [SMI0], the “inhibitory effect for other CYP enzymes” value (other CYP enzymes) was “no significant inhibitory effect”, the lung weight ([1]; vs model group) was “significantly reduced” and the number of nodules ([1]; vs model group) was “significantly reduced”. The “tumor proliferation inhibition rate” value ([1]; as high as) was 66.7%, the “effect on the proliferation, migration, and apoptosis of HepG2 liver cancer cells” value (HepG2 liver cancer cells) was “no significant inhibitory effect” and the “inhibition rate for the ascites weight” value [2] was 83.78%. The ascites volume ([2]; vs model group) was “significantly reduced”, the “body weight of mice” value ([2]; vs model group) was “significantly reduced” and the “inhibition rate for tumor proliferation of the greater momentum” value ([2]; as high as) was 58.70%. For the same compound, the pIC50 (CYP2A6) was 4.12 and the “liver fibrosis level in mice induced by a high-fat diet” value [3] was “significantly reduce”.
